Two molecules from patent US10390536B2, “Methods, compounds and compositions for repelling insects and/or arachnids” (National Center for Scientific Research “Demokritos”, priority 2013, dated 2019) can be followed below.

Holding throughout (type): in vivo
Assay [1] deals with Anopheles gambiae s.l. In words: experimental hut field trial of spatial repellence, Anopheles. To be noted: single compound, 1 ml in open vial in MM-X trap, per night. How it is done:
(§1) To test the effects of repellent compounds or compositions disclosed herein on mosquitoes in a controlled environment resembling actual living quarters and conditions, field trials with standardized experimental huts were conducted at Kainji Dam in North Central Nigeria.
(§2) Six such huts were built in a straight line, and the distance between huts was 11 meters. These huts follow a traditional square design, the walls are built with concrete blocks that are subsequently plastered with cement, each wall has a window. The ceiling is plywood and the roof is thatched with eaves that are open, thereby allowing free flow of air into and out of the hut, and thus entry and exit of mosquitoes. There is a door for entry and exit. Two opposing sides of each hut have window exit traps and screened verandas to capture mosquitoes leaving via the windows or eaves. Each hut is raised off the ground on a concrete platform and surrounded by a moat filled with water in order to prevent ants from entering. Each hut is fitted with a mattress and an untreated bed net for sleepers. These huts are similar in design and concept to those used previously elsewhere for studying mosquito behavior and measuring the efficacy of various mosquito control products or intervention methods in Tanzania and Gambia. For design parameters refer to WHOPES 2005. The huts are adjacent to a tributary of the River Niger at a distance of 10 km from the Kainji Dam site and face rice fields known to harbor permanent mosquito breeding sites. The mosquitoes endemic to this area of Nigeria are highly endophillic, that is, they rest mainly indoors.
(§3) Human volunteers that participated as sleepers in this field trial were provided with anti-malarial chemical prophylaxis on a weekly basis, and the protocols used herein were reviewed and approved by the Research Ethics Review Committee of the Nigerian Institute of Medical Research. Six male adult volunteers, aged between 25 and 35 years old, were recruited to sleep in the huts described above. Sleepers were allocated to huts randomly for each series of trials, and this randomization process occurred nightly. The volunteers entered the huts by 21:00 each night and remained inside the huts until 06:30 the following morning. Each morning, the windows were closed and the exit traps blocked with a piece of cloth to prevent mosquitoes that entered from exiting. The traps were then put in a freezer at −20° C. to kill all the mosquitoes before being emptied for identification. By means of a sucking aspirator the verandas and rooms were visually searched for live mosquitoes and any insects found were collected in labelled cups. A 10-minute search was conducted for each hut (room and veranda traps). The exit traps were emptied into a labelled cup and all the mosquitoes placed in the freezer at −20° C. for about 30 minutes before morphological identification.
(§4) The Mosquito Magnet trap Model-X (MM-X trap made by the firm formerly known as American Biophysics (ABC), USA) is a 12V battery operated counter-flow trap that was used as the repellent dispersing device to evaluate the efficacy of repellent compounds or compositions disclosed herein. Four compounds, carvacrol, cumin alcohol, ethyl cinnamate, and butyl cinnamate, were evaluated in comparison to DEET as a nonproprietary conventional repellent in a first experiment. The chemical compounds were provided in liquid form: carvacrol (98%), butyl cinnamate (98%), ethyl cinnamate (98%), cumin alcohol (97%) and DEET (97%). […]

Assay [2] relates to Culex spp. In words: experimental hut field trial of spatial repellence, Culex. To be noted: single compound, 1 ml in open vial in MM-X trap, per night. How it is done: as §1, §2, §3, §4
For assay [3], the system named is Anopheles gambiae (Giles) ss strain 16CSS female mosquitoes. In words: warm body repellence assay (mosquito landings). To be noted: for median repellency (%) at 20 nmol/cm2: Anopheles gambiae, 2 min, 20 nmole per cm^2, read-out: Median Repellency (%). Here is the method:
To test the behavior of female mosquitoes to an essential oil containing OBP binding components, a previously described repellence assay [Kröber et al. (2010). An In Vitro Assay for Testing Mosquito Repellents Employing a Warm Body and Carbon Dioxide as a Behavioral Activator. Journal of the American Mosquito Control Association 26(4) 381-386] was conducted that measures the number of mosquito landings on a warm surface onto which an essential oil containing at least one candidate compound was applied.
To conduct a repellency assay, a selected essential oil or ethanol negative control was applied to a warm body at a dose of about 3.8 μg/cm^2 and allowed to dry for 40 seconds in order to allow evaporation of the solvent before introduction into the test cage with mosquitoes. As positive control for repellence, DEET dissolved in ethanol was applied to the warm body at the same dose. The treated warm body in conjunction with a pulse of carbon dioxide was introduced into the test cage containing fifty Anopheles gambiae (Giles) ss strain 16CSS female mosquitoes that were 4-11 days old and the number of mosquito landings on the warm body occurring within a 2-minute period was counted. Each candidate compound was tested in five different cages (i.e., 250 female mosquitoes) in a randomized design, and the ethanol control and up to four candidate compounds were tested in each cage. Raw data on numbers of landings by mosquitoes were analyzed using a linear mixed model accounting for treatment, experimental day, the individual cage, the number of females per cage and the level of the carbon dioxide pulse in ppm using R (R Development Core Team, 2010) and the packages LME4 (Bates and Maechler, Ime4: Linear mixed-effects models using {S4} classes.{R} package version 0.999375-32, 2009) and NLME (Pinheiro et al, nlme: Linear and Nonlinear Mixed Effects Models, 2010; the R Development Core Team, R: A Language and Environment for Statistical Computing, 2010). Repellent values were calculated from counted landings on treatments versus the overall landings on pooled controls.
To test the behavior of female mosquitoes to a candidate compound identified in Example 5, behavioral assays were made using the identified compounds. The repellent assay was performed as described in Example 3, except that candidate compounds were dissolved in ethanol and tested initially at doses between 1.0 and 5.0 μg/cm^2 (about 5-31.5 nmole/cm^2) and, whenever necessary, at lower and/or higher doses as well. Besides the compounds identified in Example 5, compounds related to these were also tested including ethyl-cinnamate and butyl-cinnamate (Table 4).
To test the behavior of female mosquitoes to various combinations of candidate compounds identified in Example 6, repellence assays were made as in Example 3. These repellent assays were made to compare the effectiveness of the strongest repellent compounds identified in Example 6, including, without limitation, carvacrol, ethyl cinnamate, butyl cinnamate, and cumin alcohol with that of DEET.
The doses tested were 2, 4, 6 10 and 20 nmol/cm^2 for the single compounds. The binary 50:50 mixtures were tested at 2, 6, 10 and 20 nmol/cm^2, with each compound making up half the amount tested, so that, for example, the 2 nmol/cm^2 concentration in column A+B represents 1 nmol/cm^2 of A and 1 nmol/cm^2 of B in a binary mixture. DEET was also tested at 25 nmol (top response) and carvacrol was tested at the additional dose of 2.5 nmol (second from left within its column). As an indication, DEET at 20 nmol/cm^2=3.8 μg/cm^2. Mosquitoes were activated using a puff of CO2 from a gas tank upon introduction of the warm body into the test cage containing 50±5 A. gambiae females and mosquito landings were counted for 2 minutes. Each treatment (dose) was tested using five test cages, i.e. on a total of 250 female A. gambiae. […]

In assay [4] the test system is sand fly Lutzomyia longipalpis. Briefly: warm body repellence assay with sand flies. To be noted: 2 minutes, control 48. Here is the method: To test the effects of repellent compounds or compositions disclosed herein on other blood-feeding arthropods, a warm body repellence assay (Krober et. al. (2010). An In Vitro Assay for Testing Mosquito Repellents Employing a Warm Body and Carbon Dioxide as a Behavioral Activator. Journal of the American Mosquito Control Association 26(4): 381-386] was conducted using the sand fly Lutzomyia longipalpis (Diptera: Psychodidae), the principal vector of Leishmania (or leismaniasis) in the Americas.
[…] Fifty L. longipalpis sandflies (male:female ratio 1:1) of 3-7 days old were tested during the scotophase under conditions described for A. gambiae in Example 6. The test cages were lined with filter paper. Reduction in the number of landings by L. longipalpis sand fly females on a warm body treated with different test products compared to the control with solvent (ethanol p.a.) alone was used to evaluate repellence. Tests were conducted in complete darkness using IR LEDs to illuminate the warm body. Landings counted during 2 minutes were normalized by experimental day, cage, and number of females by a mixed linear model before testing for differences.

[5] abbreviates: 2 nmol (per cm^2, total for mixtures, 50:50).
Where [6] appears, read: 4 nmol (per cm^2, total for mixtures, 50:50).
Setting [7] is: 6 nmol (per cm^2, total for mixtures, 50:50).
The mark [8] stands for this setting: 20 nmol (per cm^2, total for mixtures, 50:50).

With `CCOC(=O)C=Cc1ccccc1` [(E)-ethyl-cinnamate, ethyl 3-phenylprop-2-enoate], the “spatial repellent effect, induced exophily (in words)” value in assay [1] and in assay [2] was “significantly lower than that of DEET” throughout. The Median repellence % is on record as −18% in assay [3] (setting [5]), 18% in assay [3] (setting [6]), 35% in assay [3] (setting [7]) and 83% in assay [3] (setting [8]). In addition, the median repellency (%) at 20 nmol/cm2 in assay [3] is 82.8%.

With `CCCCOC(=O)C=Cc1ccccc1` [butyl-cinnamate, butyl 3-phenylprop-2-enoate], the “spatial repellent effect, induced exophily (in words)” value in assay [1] and in assay [2] was “significantly lower than that of DEET” in each case. The Median repellence % in assay [3] (setting [5]) is given as −1%; in assay [3] (setting [6]), 28%; in assay [3] (setting [7]), 61%; in assay [3] (10 nmol (per cm^2, total for mixtures, 50:50)), 68%; in assay [3] (setting [8]), 89%. Moreover, the median repellency (%) at 20 nmol/cm2 in assay [3] stood at 88.7%. The Median of landings in assay [4] (20 nmol/cm^2) is reported as 49; in assay [4] (200 nmol/cm^2), 40.
